Experimental data: patent US6338963B1, “Use of carbon monoxide dependent guanylyl cyclase modifiers to stimulate neuritogenesis” (NeoTherapeutics, Inc., priority 1994, dated 2002)
Marks after values point to notes of the source that are not given here.

Experiments:
Swiss Webster mice = assay: Win-shift T-maze memory test, Swiss Webster mice; type: in vivo; settings: for Win-shift Memory Test, Correct responses: 90-second inter-trial interval
Protocol: Male Swiss Webster mice six months (young adult) and eleven months (old) of age, obtained from the National Institute on Aging, were maintained in individual cages, on a […] light/dark cycle with continuous access to water. Food was limited so that the mice stabilized at 80% of free feeding weight. Mice were weighed and handled daily for one week. The win-shift model was run as described in the literature and consists of a T-maze in which the correct response alternates after each correct trial. The interval between trials is varied and allows for the determination of the longest period between trials that a subject can remember the correct response on the previous trial. This allows the measure of the duration of the memory trace. […] The reward goal box is alternated after each correct trial. Ten trials per mouse are run each day. […] The latency time to leave the start box is recorded as a measure of motivation, the running time (the time from leaving the start box to reaching the goal box) is recorded as a measure of performance, and the number of correct responses as a measure of memory.
The drugs used in this example are 4-((3-(1,6-dihydro-6-oxo-9-purin-9-yl)-1-oxopropyl)amino) benzoic acid (AIT-082), as an exemplary potassium salt, tacrine hydrochloride (tetrahydroaminoacridine, THA, Sigma Chemical Co., St. Louis, Mo.), and physostigmine, hemisulfate salt (PHY, Sigma Chemical Co., St. Louis, Mo.). The drugs were dissolved in saline and prepared fresh daily. All injections were made at a volume of 0.1 ml/10 grams body weight. When testing drug effects, intraperitoneal (i.p.) injections of AIT-082 or THA were made one hour prior to the start of testing. Due to its shorter duration of action, PHY was injected 30 minutes prior to testing. Control subjects receive a similar injection of saline (vehicle).
To determine the duration of the memory trace, subjects were administered drug or saline and 30 minutes (PHY) or 1 hour (AIT-082 or THA) later they were given a single reference run with the milk reward in both goal boxes. After the indicated inter-trial delay, subjects were returned to the start box and given the first test trial with the milk reward only in the goal box opposite to the one entered on the previous correct trial. The subjects were given 10 trials with the reward alternating only after correct responses.
To determine if tolerance to the biological effects of AIT-082 developed, drug or saline was administered daily for 18 days prior to the testing in the standard win-shift paradigm.

GDNF = assay: Two-site ELISA of growth factor protein in rat brain and spinal cord: GDNF; type: in vivo, F344 rats
Protocol: (§1) Adult female F344 rats were given either AIT-082 (doses: 30 mg/kg/day or a higher dose of 30 mg/ml (˜3,000 mg/kg/day); n=6 rats per group) in their drinking water, or water alone, as a vehicle for control. The duration of the study was seven days, at which time the rats were anesthesized and perfused with ice-cold saline. The brains of the rats were rapidly removed. The brains were placed on a chilled glass plate and dissected into the following regions: basal forebrain, frontal cortex, parietal cortex, cerebellum, spinal cord, and hippocampal formation. Tissues were stored at −70° C. until assayed in a specific two-site ELISA for either NGF, BDNF, NT-3, or GNDF.
(§2) The results are shown in FIGS. 45 (BDNF), 46 (NT-3), 47 (GDNF) and 48 (NGF). For the results shown in FIGS. 45-48, animals were given only water (VEH, n=6) or water with AIT-082 at either 30 mg/kg/day (n=6) or 30 mg/ml (n=6) for seven days. The levels of each growth factor were determined in the frontal cortex (F. Cor.), parietal cortex (P.Cor.), hippocampal formation (Hipp.), basal forebrain (B.F.), cerebellum (Cer.), or spinal cord (Cord) using a specific two-site ELISA for each growth factor.
(§3) Adult female rats were given AIT-082 (30 mg/kg/day) in their drinking water or drinking water alone (n=6 for each group) for seven days prior to receiving a bilateral fimbria fornix transection (FFT).
The results are shown in FIGS. 49 (BDNF), 50 (NT-3), 51 (GDNF) and 52 (NGF). […] Levels of the growth factor were determined in frontal cortex (F.Cor.), parietal cortex (P.Cor.), hippocampal formation (Hipp.), basal forebrain (B.F.), cerebellum (Cer.), or spinal cord (Cord) using a specific two-site ELISA for each growth factor. […]
Results are shown in FIGS. 53 (BDNF), 54 (NT3), 55 (GDNF), and 56 (NGF). […] Levels of each growth factor were determined in frontal cortex (F.Cor.), parietal cortex (P. Cor.), hippocampal formation (Hipp.), basal forebrain (B.F.), cerebellum (Cer.) or spinal cord (Cord) using a specific two-site ELISA.

NT-3 mRNA = assay: RT-PCR of growth factor mRNA after T8 spinal cord hemisection: NT-3; type: in vivo, Wistar rats
mice = assay: Prophylaxis of age-induced memory deficit (win-shift, monthly); type: in vivo; settings: 30 mg/kg/day in drinking water from 14 months of age
Protocol: It has been observed that age-induced memory deficits typically begin to manifest themselves in mice between 14 and 16 months of age. Therefore, the treatment of mice was begun at 14 months of age with AIT-082 (30 mg/kg/day) in their drinking water. The animals were measured monthly for their memory using the win-shift foraging tests previously described.

rat striatum = assay: MRI of rat striatum injected with NMDA; type: in vivo
Protocol: T-2 weighted MRI photos of transverse brain 3-mm thick slices were performed (TR/TE=7400/115 ms; matrix 483×1024; FLV 250). Magnetic resonance images were acquired using 1.5 T scanner (Vision, Siemens-Erlangen). […] All animals survived the surgery and continued to receive treatment for an additional three days, at which time they were sacrificed and tissues were collected as described above.

BDNF = assay: Two-site ELISA of growth factor protein in rat brain and spinal cord: BDNF; type: in vivo, F344 rats
Protocol: as §1, §2, §3
The results are shown in FIGS. 49 (BDNF), 50 (NT-3), 51 (GDNF) and 52 (NGF). For the results shown in the Figures, animals were given only water (VEH, n=3) or water with AIT-082 at 30 mg/kg/day (n=3). Levels of the growth factor were determined in frontal cortex (F.Cor.), parietal cortex (P.Cor.), hippocampal formation (Hipp.), basal forebrain (B.F.), cerebellum (Cer.), or spinal cord (Cord) using a specific two-site ELISA for each growth factor.
Aged female Fischer 344 rats (obtained from National Institute on Aging; 24 months on arrival) were given AIT-082 (30 mg/kg/day) in their drinking water or drinking water alone, for a period of 30 days (n=5 rats per group). After 30 days, animals were sacrificed and fresh tissues were dissected as described above. An additional set of young animals (n=5) was processed along with the aged rats for comparison.
Results are shown in FIGS. 53 (BDNF), 54 (NT3), 55 (GDNF), and 56 (NGF). As described above, for the results shown in these figures, aged rats (24 months of age) were given water (vehicle control; n=5) or water with AIT-082 (at 30 mg/kg/day; n=5 for 30 days). A separate group of young untreated animals was also included (n=5). Levels of each growth factor were determined in frontal cortex (F.Cor.), parietal cortex (P. Cor.), hippocampal formation (Hipp.), basal forebrain (B.F.), cerebellum (Cer.) or spinal cord (Cord) using a specific two-site ELISA.

Which results are given for `O=C(CCn1cnc2c(=O)[nH]cnc21)Nc1ccc(C(=O)O)cc1` [AIT-082, N-4-carboxyphenyl-3-(6-oxohydropurin-9-yl)propanamide]?
Win-shift Memory Test, Correct responses (Swiss Webster mice; AIT-082 0.5 mg/kg i.p.): 6.5* Correct responses/10 trials; Win-shift Memory Test, Correct responses (Swiss Webster mice; AIT-082 30.0 mg/kg i.p.): 8.2* Correct responses/10 trials; Tolerance (Swiss Webster mice; AIT-082 30.0 mg/kg daily for 18 days prior to win-shift testing): 7.6* Correct responses/10 trials; onset of action (Swiss Webster mice; data not shown): 1 h; duration of action (Swiss Webster mice; single dose of 60 mg/kg): more than seven days; GDNF protein levels (GDNF; FFT-lesioned rats, 30 mg/kg/day, basal forebrain): increased GDNF levels; GDNF protein levels (GDNF; aged rats, 30 mg/kg/day 30 days, parietal and frontal cortex): restored GDNF protein levels to those of young animals; GDNF protein levels (GDNF; intact adult rats, 3000 mg/kg/day, basal forebrain and spinal cord): increased GDNF levels; NT-3 mRNA level (NT-3 mRNA; at the level of the lesion): no significant differences; NT-3 mRNA level (NT-3 mRNA; caudal to lesion, 7 days): no significant effects; NT-3 mRNA level (NT-3 mRNA; caudal to lesion, control animals, 3 days): decreased; onset and severity of age-induced memory deficits (mice): delayed the onset and severity of memory deficits; MRI brightness of the lesion (rat striatum; AIT locally co-injected with NMDA): disappeared; MRI brightness of the lesion (rat striatum; systemic (intraperitoneal) AIT-082 60 mg/kg): significantly reduced; BDNF protein levels over vehicle controls (BDNF; FFT-lesioned rats, 30 mg/kg/day, frontal cortex, significance not achieved): almost threefold; BDNF protein levels (BDNF; aged rats, 30 mg/kg/day 30 days, any brain region): no effect; BDNF protein levels over vehicle controls (BDNF; intact adult rats, 30 mg/kg/day in drinking water 7 days, frontal cortex): more than twofold; BDNF protein levels over vehicle controls (BDNF; intact adult rats, 3000 mg/kg/day, frontal cortex): not seen; BDNF protein levels over vehicle controls (BDNF; intact adult rats, spinal cord, not significant (p>0.05)): twofold
